System: TSE-induced lung injury (TSE-LI)
Test: chronic tobacco smoke exposure induced lung injury (TSE-LI) in wild-type mice
Format: in vivo
Experimental: Recombinant full-length U5a protein (U5a^FL), extracellular domain of U5a^FL (U5a^ECD) and U5a^ECD-specific monoclonal antibody (U5a^mAb, the 17C9 1 anti-U5a antibody comprising the sequences of SEQ ID NOs. 204 and 211) mitigated chronic TS exposure (TSE) induced lung injury (TSE-LI) in wild-type (WT) mice. WT mice were kept in ambient AIR or exposed to tobacco smoke (TSE) for 4 h/day 5 days a week. After 16 weeks, WT mice with TSE-LI were left untreated (None) or treated with 2.5 mg/kg of U5a^FL, U5a^ECD and U5amAb 5 days a week for 4 weeks by IP injection. Total lung RNA were analyzed for MUC5AC (M5Ac) (FIG. 12A), FOXA2 (FIG. 12B) and surfactant protein-C(SP-C) (FIG. 12C) mRNA by qPCR. Lung sections of mice treated as in FIG. 12A were subjected to IHC analysis for M5Ac (FIG. 12D). We found increased expression of U5a in AECs and ATII cells in lungs of patients with COPD and mice with TSE-LI. […] In addition, increased surfactant protein-C(SP-C) indicates improved survival of ATII cells, which is otherwise reduced due to increased TSE-induced senescence and apoptosis of ATII cells seen in mice with TSE-LI left untreated.

Substance: U5a^ECD: extracellular domain of U5a^FL; ECD of UNC5A given as SEQ ID NO: 103
- MUC5AC (M5Ac) expression (lung mRNA by qPCR, IHC) (WT mice with TSE-LI, 2.5 mg/kg IP 5 days a week for 4 weeks, FIG. 12A, 12D): significantly inhibits
- FOXA2 mRNA (qPCR) (WT mice with TSE-LI, 2.5 mg/kg IP 5 days a week for 4 weeks, FIG. 12B): inducing
- surfactant protein-C (SP-C) mRNA (qPCR) (WT mice with TSE-LI, 2.5 mg/kg IP 5 days a week for 4 weeks, FIG. 12C): increased
- chronic TS exposure (TSE) induced lung injury (TSE-LI) (WT mice, 2.5 mg/kg IP 5 days a week for 4 weeks after 16 weeks TSE): mitigated

Reference: patent publication US20250144205A1, “COMPOSITIONS AND METHODS FOR TREATING INFECTIOUS DISEASES” (priority 2022, published 2025)
